# Reference: ChEMBL document CHEMBL5038653, “A Brain-Penetrant and Bioavailable Pyrazolopiperazine BACE1 Inhibitor Elicits Sustained Reduction of Amyloid β In Vivo” (ACS Med Chem Lett, 2022)
# How the values were obtained:
# [1] = Clearance in mouse plasma at 0.28 mg/kg, iv; assay type: ADME, organism-based
# [2] = molecular target: T1, Cytochrome P450 2C8 (Homo sapiens, UniProt P10632); experiment: Inhibition of human CYP2C8 by fluorescence plate reader analysis; assay type: ADME
# T1 sequence (P10632 whole entry): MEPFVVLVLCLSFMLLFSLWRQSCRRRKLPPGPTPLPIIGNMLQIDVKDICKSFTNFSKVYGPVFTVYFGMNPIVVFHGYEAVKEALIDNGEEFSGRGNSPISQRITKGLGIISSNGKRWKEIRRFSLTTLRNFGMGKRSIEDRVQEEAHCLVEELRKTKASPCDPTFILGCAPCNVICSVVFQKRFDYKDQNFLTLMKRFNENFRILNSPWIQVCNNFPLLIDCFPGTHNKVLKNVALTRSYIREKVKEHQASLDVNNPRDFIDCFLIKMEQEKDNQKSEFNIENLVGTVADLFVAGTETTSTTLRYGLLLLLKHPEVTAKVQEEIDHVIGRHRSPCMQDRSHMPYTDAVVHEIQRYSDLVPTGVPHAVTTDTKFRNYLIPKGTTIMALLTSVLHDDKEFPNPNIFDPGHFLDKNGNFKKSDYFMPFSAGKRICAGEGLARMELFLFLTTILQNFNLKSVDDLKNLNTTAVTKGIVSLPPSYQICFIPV
# [3] = Clearance in mouse at 0.28 mg/kg, iv relative to liver blood flow; assay type: ADME, organism-based; conditions: in vivo
# [4] = Metabolic stability in mouse liver microsomes assessed as metabolite formation after 15 mins in presence of NADPH by LC-MS analysis; assay type: ADME, Microsome; conditions: 0.25 h
# [5] = Drug level in CD-1 mouse plasma at 10 mg/kg, po measured at 1 hr post dose; assay type: ADME, organism-based
# [6] = In vivo inhibition of BACE1 in Beagle dog assessed as reduction of amyloid beta (1 to 42 residues) levels in CSF at 2.5 mg/kg, po measured after 8 hrs by electrochemiluminescence assay; assay type: functional, Canis lupus familiaris; parameters: scale not given: the % may be the effect or the level left
# [7] = Cardiotoxicity in guinea pig assessed as effect on heart rate upto 5 mg/kg, iv administered over 10 mins at 30 mins interval by ECG analysis; assay type: toxicity, organism-based, Cavia porcellus; conditions: in vivo
# [8] = molecular target: T2, Beta-secretase 2 (Homo sapiens, UniProt Q9Y5Z0); experiment: Inhibition of BACE2 (unknown origin)
# T2 sequence (Q9Y5Z0 whole entry): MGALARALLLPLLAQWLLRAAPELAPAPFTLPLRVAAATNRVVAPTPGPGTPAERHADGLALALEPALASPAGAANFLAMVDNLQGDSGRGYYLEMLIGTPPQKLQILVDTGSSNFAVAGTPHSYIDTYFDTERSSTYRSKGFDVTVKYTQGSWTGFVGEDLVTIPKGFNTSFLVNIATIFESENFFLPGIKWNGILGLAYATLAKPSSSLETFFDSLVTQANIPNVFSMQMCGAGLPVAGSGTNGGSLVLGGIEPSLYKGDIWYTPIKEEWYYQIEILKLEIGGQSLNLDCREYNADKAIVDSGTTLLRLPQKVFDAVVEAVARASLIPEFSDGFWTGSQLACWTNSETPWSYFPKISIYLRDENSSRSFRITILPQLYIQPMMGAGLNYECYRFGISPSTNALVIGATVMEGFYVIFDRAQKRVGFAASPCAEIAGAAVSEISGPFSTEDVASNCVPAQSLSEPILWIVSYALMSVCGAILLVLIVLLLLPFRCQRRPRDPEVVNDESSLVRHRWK
# [9] = Free drug concentration in rat brain measured after 5 hrs by HPLC-MS/MS method; assay type: ADME, tissue-based
# [10] = In vivo inhibition of CD-1 mouse assessed as remaining amyloid beta (1 to 42 residues) levels in CSF at 10 mg/kg, po measured at 2 hrs; assay type: functional
# [11] = Toxicity in guinea pig assessed as effect on body temperature at 0.63 to 5 mg/kg, iv administered over 10 mins at 30 mins interval; assay type: organism-based, Cavia porcellus; conditions: in vivo, dose 0.63-5 mg/kg
# [12] = Apparent permeability across apical to basolateral side in dog MDCK-MDR1 cells at 5 uM incubated for 120 mins; assay type: ADME, cell-based, Canis lupus familiaris
# [13] = Half life in dog at 0.25 mg/kg, iv; assay type: ADME, organism-based, Canis lupus familiaris; conditions: in vivo
# [14] = molecular target: T3, Cytochrome P450 1A2 (Homo sapiens, UniProt P05177); experiment: Inhibition of human CYP1A2 by fluorescence plate reader analysis; assay type: ADME
# T3 sequence (P05177 whole entry): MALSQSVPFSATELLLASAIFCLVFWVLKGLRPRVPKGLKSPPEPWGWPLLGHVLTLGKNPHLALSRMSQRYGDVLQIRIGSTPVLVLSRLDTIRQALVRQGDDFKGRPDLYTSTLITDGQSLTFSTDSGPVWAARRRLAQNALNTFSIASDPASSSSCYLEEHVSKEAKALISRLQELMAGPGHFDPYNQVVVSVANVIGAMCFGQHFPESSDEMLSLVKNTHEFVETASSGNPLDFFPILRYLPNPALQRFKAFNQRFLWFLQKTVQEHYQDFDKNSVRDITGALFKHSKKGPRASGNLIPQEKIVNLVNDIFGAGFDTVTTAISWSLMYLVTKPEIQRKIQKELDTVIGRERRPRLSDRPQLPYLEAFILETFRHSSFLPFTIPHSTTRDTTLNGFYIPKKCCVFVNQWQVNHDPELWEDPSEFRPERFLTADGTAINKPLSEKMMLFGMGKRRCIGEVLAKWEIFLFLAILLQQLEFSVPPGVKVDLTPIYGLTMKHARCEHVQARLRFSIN
# [15] = Oral bioavailability in mouse at 2.1 mg/kg; assay type: ADME, organism-based; conditions: in vivo
# [16] = Volume of distribution at steady state in rat at 0.25 mg/kg, iv; assay type: ADME, organism-based; conditions: in vivo, read-out: Vdss
# [17] = Ratio of unbound drug concentration in brain to blood in CD-1 mouse at 10 mg/kg, po measured at 2 hr post dose; assay type: ADME, organism-based
# [18] = Drug level in CD-1 mouse brain at 10 mg/kg, po measured at 1 hr post dose; assay type: ADME, organism-based; conditions: read-out: Ct
# [19] = Ratio of apparent permeability across apical to basolateral side in the presence of P-gp inhibitor elacridar to the absence of P-gp inhibitor elacridar in dog MDCK-MDR1 cells at 5 uM incubated for 120 mins; assay type: ADME, cell-based, Canis lupus familiaris; conditions: 2 h
# [20] = Free drug concentration in mouse plasma measured after 4.5 hrs by HPLC-MS/MS method; assay type: ADME, cell-free
# [21] = molecular target: Cathepsin D (Homo sapiens, UniProt P07339); experiment: Inhibition of Cathepsin D (unknown origin)
# Sequence of Cathepsin D (P07339 65-162 limits assumed): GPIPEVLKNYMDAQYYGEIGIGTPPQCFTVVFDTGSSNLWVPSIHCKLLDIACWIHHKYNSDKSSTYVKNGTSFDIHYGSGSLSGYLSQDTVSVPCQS
# Sequence of Cathepsin D (P07339 169-412 limits assumed): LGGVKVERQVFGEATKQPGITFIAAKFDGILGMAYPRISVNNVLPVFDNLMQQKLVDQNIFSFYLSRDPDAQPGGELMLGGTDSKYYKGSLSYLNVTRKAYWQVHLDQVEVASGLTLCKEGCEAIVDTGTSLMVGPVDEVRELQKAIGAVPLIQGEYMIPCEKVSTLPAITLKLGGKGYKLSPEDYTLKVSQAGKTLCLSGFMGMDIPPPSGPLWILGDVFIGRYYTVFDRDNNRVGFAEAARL
# [22] = AUC (0 to infinity) in mouse at 0.28 mg/kg, iv; assay type: ADME, organism-based; parameters: time infinity, route intravenous, dose 0.28 mg/kg; conditions: in vivo
# [23] = molecular target: Cytochrome P450 2D6 (Homo sapiens, UniProt P10635); experiment: Inhibition of human CYP2D6 by fluorescence plate reader analysis; assay type: ADME
# Sequence of Cytochrome P450 2D6 (P10635 whole entry): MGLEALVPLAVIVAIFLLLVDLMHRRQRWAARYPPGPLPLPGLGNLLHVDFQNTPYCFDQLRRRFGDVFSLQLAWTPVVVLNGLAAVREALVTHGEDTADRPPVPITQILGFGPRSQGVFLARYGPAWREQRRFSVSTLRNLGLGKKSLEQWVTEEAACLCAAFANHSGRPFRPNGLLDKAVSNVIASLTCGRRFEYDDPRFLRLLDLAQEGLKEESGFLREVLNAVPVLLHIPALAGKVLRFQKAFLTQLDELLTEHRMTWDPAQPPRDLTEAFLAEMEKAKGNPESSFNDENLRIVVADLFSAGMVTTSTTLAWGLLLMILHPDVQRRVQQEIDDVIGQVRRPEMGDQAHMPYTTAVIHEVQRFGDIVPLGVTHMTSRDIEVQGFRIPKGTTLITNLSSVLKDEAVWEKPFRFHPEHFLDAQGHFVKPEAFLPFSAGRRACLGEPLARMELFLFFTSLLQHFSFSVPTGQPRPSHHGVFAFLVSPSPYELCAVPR
# [24] = Cardiotoxicity in guinea pig assessed as effect on blood pressure upto 5 mg/kg, iv administered over 10 mins at 30 mins interval; assay type: toxicity, organism-based, Cavia porcellus; conditions: in vivo
smiles,measurement,setting,value
COc1cnc(C(=O)Nc2ccc(F)c([C@]3(C)Cn4nc(C#N)cc4C(N)=N3)c2)cn1,clearance,[1],23 mL/min/kg
same,IC50,[2],> 30 µM
same,CL,[3],25%
same,Drug metabolism,[4],23%
same,concentration at 1 h,[5],591 ng/mL
same,Activity,[6],85%
same,Activity,[7],Non-Toxic
same,IC50,[8],0.0115 µM
same,fraction unbound at 5 h,[9],0.015
same,Activity,[10],53%
same,Activity,[11],Non-Toxic
same,"Papp A→B at 2 h, 5 µM",[12],13.1 ×10⁻⁶ cm/s
same,half-life,[13],7.7 h
same,IC50,[14],> 30 µM
same,bioavailability,[15],> 100%
same,Vd,[16],5.3 L/kg
same,Kp uu at 2 h,[17],0.29
same,concentration at 1 h,[18],621 ng/g
same,Ratio,[19],1.56
same,fraction unbound at 4.5 h,[20],0.05
same,IC50,[21],> 100 µM
same,AUC,[22],206 ng·h/mL
same,IC50,[23],> 30 µM
same,Activity,[24],Non-Toxic
